# Measured values: patent US9540314B2, “N-cycloalkyl-N-[(cycloalkenylphenyl)methylene]-(thio) carboxamide derivatives” (BAYER INTELLECTUAL PROPERTY GMBH, priority 2012, dated 2017)
# How the values were obtained:
# Uromyces appendiculatus = assay: In vivo preventive test on Uromyces appendiculatus (bean rust); conditions: 500 ppm of active ingredient; bean plants, preventive spray; grading 11 days after contamination (table K1)
# Experimental: (§1) The active ingredients tested are prepared by homogenization in a mixture of acetone/tween/DMSO, and then diluted with water to obtain the desired active material concentration.
# (§2) After 24 hours, the plants are contaminated by spraying the leaves with an aqueous suspension of Uromyces appendiculatus spores (150 000 spores per mL). The spores are collected from infected plants and are suspended in water containing 2.5 mL/L of Tween 80 at 10%. The contaminated bean plants are incubated for 24 hours at 20° C. and at 100% relative humidity, and then for 10 days at 20° C. and at 70-80% relative humidity.
# Grading (% of efficacy) is carried out 11 days after the contamination, in comparison with the control plants.
# [1] = log P by HPLC on a reversed-phase column (C 18), EEC Directive 79/831 Annex V.A8; format: physicochemical; conditions: Table 1; HPLC C 18, 40° C., 0.1% aqueous formic acid and acetonitrile; several values = mixture of 2 or more isomers
# Experimental: In table 1, the log P values were determined in accordance with EEC Directive 79/831 Annex V.A8 by HPLC (High Performance Liquid Chromatography) on a reversed-phase column (C 18), using the method described below:
# Temperature: 40° C.; Mobile phases: 0.1% aqueous formic acid and acetonitrile; linear gradient from 10% acetonitrile to 90% acetonitrile.
# Calibration was carried out using unbranched alkan-2-ones (comprising 3 to 16 carbon atoms) with known log P values (determination of the log P values by the retention times using linear interpolation between two successive alkanones). lambda-max-values were determined using UV-spectra from 200 nm to 400 nm and the peak values of the chromatographic signals.
# Puccinia recondita = assay: In vivo preventive test on Puccinia recondita (brown rust on wheat); conditions: 500 ppm of active ingredient; wheat plants, preventive spray; grading 12 days after contamination
# Experimental: as §1
# (§3) Wheat plants (“Scipion” variety), sown in starter cups on a 50/50 peat soil pozzolana substrate and grown at 22° C., are treated at the 1 leaf stage (10 cm height) by spraying with the active ingredient prepared as described above. Plants, used as controls, are treated with the mixture of acetone/tween/DMSO/water not containing the active material.
# as §2, with “of Puccinia recondita” for “of Uromyces appendiculatus”, “spores (100” for “spores (150”, “from an” for “from”, “infected plant” for “infected plants”, “contaminated wheat” for “contaminated bean”
# (§4) Grading (% of efficacy) is carried out 12 days after the contamination, in comparison with the control plants.
# Under these conditions, good (at least 70%) to total protection is observed at a dose of 500 ppm of active ingredient with the following compounds from table I: […]
# Sphaerotheca fuliginea = assay: In vivo preventive test on Sphaerotheca fuliginea (powdery mildew on cucurbits); conditions: 500 ppm, gherkin plants, grading 12 days after contamination
# Experimental: The active ingredients tested are prepared by homogenization in a mixture of acetone/tween/DMSO and then diluted with water to obtain the desired active material concentration.
# Gherkin plants (“Vert petit de Paris” variety), sown in starter cups on a 50/50 peat soil-pozzolana substrate and grown at 24° C., are treated at the Z11 cotyledon stage by spraying with the active ingredient prepared as described above. Plants, used as controls, are treated with the mixture of acetone/tween/DMSO/water not containing the active material.
# After 24 hours, the plants are contaminated by spraying the cotyledons with an aqueous suspension of Sphaerotheca fuliginea spores (100 000 spores per mL). The spores are collected from infected plants. The contaminated gherkin plants are incubated at about 20° C. and at 70-80% relative humidity.
# as §4
# Under these conditions, good (at least 70%) to total protection is observed at a dose of 500 ppm of active ingredient with the following compounds from table A: […]
# Septoria tritici = assay: In vivo preventive test on Septoria tritici (wheat); conditions: 500 ppm of active ingredient; wheat plants, preventive spray; grading 24 days after contamination
# Experimental: as §1, §3
# After 24 hours, the plants are contaminated by spraying the leaves with an aqueous suspension of cryopreserved Septoria tritici spores (500 000 spores per mL). The contaminated wheat plants are incubated for 72 hours at 18° C. and at 100% relative humidity, and then for 21 days at 90% relative humidity.
# Grading (% of efficacy) is carried out 24 days after the contamination, in comparison with the control plants.
# Under these conditions, good (at least 70%) to total protection is observed at a dose of 500 ppm of active ingredient with the following compounds from table J: […]
# Pyrenophora teres = assay: In vivo preventive test on Pyrenophora teres (barley); conditions: 500 ppm of active ingredient; barley plants, preventive spray; grading 14 days after contamination
# Experimental: as §1
# Barley plants (“Plaisant” variety), sown in starter cups on a 50/50 peat soil pozzolana substrate and grown at 22° C., are treated at the 1 leaf stage (10 cm height) by spraying with the active ingredient prepared as described above. Plants, used as controls, are treated with the mixture of acetone/tween/DMSO/water not containing the active material.
# After 24 hours, the plants are contaminated by spraying the leaves with an aqueous suspension of Pyrenophora teres spores (12 000 spores per mL). The spores are collected from a 12-day-old culture.
# The contaminated barley plants are incubated for 48 hours at 20° C. and at 100% relative humidity, and then for 12 days at 20° C. at 70-80% relative humidity.
# Grading (% of efficacy) is carried out 14 days after the contamination, in comparison with the control plants.
# Under these conditions, good (at least 70%) to total protection is observed at a dose of 500 ppm of active ingredient with the following compounds from table H1: […]
# Alternaria brassicae = assay: In vivo preventive test on Alternaria brassicae (leaf spot on radish); conditions: Table C1, 500 ppm, radish plants, grading 6 days after contamination
# Experimental: as §1
# Radish plants (“Pernod Clair” variety), sown in starter cups on a 50/50 peat soil pozzolana substrate and grown at 17° C., are treated at the cotyledon stage by spraying with the active ingredient prepared as described above. Plants, used as controls, are treated with the mixture of acetone/tween/DMSO/water not containing the active material.
# After 24 hours, the plants are contaminated by spraying the cotyledons with an aqueous suspension of Alternaria brassicae spores (50 000 spores per mL). The spores are collected from a 15-day-old culture.
# The contaminated radish plants are incubated at 20° C. and at 100% relative humidity.
# Grading (% of efficacy) is carried out 6 days after the contamination, in comparison with the control plants.
# Under these conditions, high (at least 80%) to excellent (at least 90%) protection is observed at a dose of 500 ppm of active ingredient with the following compounds from table C1: […]
SMILES,Efficacy (Uromyces appendiculatus) [%],logP [1],Efficacy (Puccinia recondita) [%],Efficacy (Sphaerotheca fuliginea) [%],Efficacy (Septoria tritici) [%],Efficacy (Pyrenophora teres) [%],Efficacy (Alternaria brassicae) [%]
CC1CC=C(c2ccccc2C(C)N(C(=O)c2c(C(F)F)nn(C)c2F)C2CC2)CC1 (mixture of isomers) [I.45],75,5.03,81,100,100,97,98
Cn1nc(C(F)F)c(C(=O)N(Cc2c(C(F)(F)F)ccc(C3=CCCC3)c2F)C2CC2)c1F [I.7],98,4.81,81,100,97,86,80
Cn1nc(C(F)F)c(C(=O)N(Cc2c(C3=CCCC3)ccc(F)c2F)C2CC2)c1F [I.19],100,4.11,98,100,97,93,96
